Experimental data: US20240209016A1, “FLUORESCENT NUCLEOSIDE PHOSPHATES” (STEALTH LABELS BIOTECH AB, priority 2021, published 2024)

Key:
Huh-7 cells [1] = test: Dose response of cell uptake, fluorescence in cell lysate; assay type: cell-based, human; conditions: 24 h exposure
Text: Quantification in Cell Lysate: For dose response experiments of the uptake of compounds 7 and 17, total cell lysates of the exposed cells were collected and measured on an Optima Blue Fluostar plate reader (BMG Labtech) with lysis buffer as background. 2CNqATP was excited using 355 nm (±20 nm) filter and emission was collected at through a bandpass filter centred at 460 nm (±12 nm). pATP was excited using 380 nm (±5 nm) filter and emission bandpass filter centred at 410 nm (±5 nm). Lysate buffer fluorescence was subtracted as background, and the fluorescence intensities of the triplicates were averaged. The fluorescence intensity was normalized to the highest added concentration of the compounds (10 μM).
Dose-response experiments were performed at one selected time point (24 h) in order to investigate the concentration dependency of cellular FBA-TP uptake. At the end of exposure, the cells were washed and lysed. The fluorescence of the compounds in the lysate, reflecting the internalized FBA, was measured using a plate reader. […] Compounds 7 and 17 show very different uptake characteristics. Cellular uptake of 2CNqATP increases dramatically with small increases in concentration and reaches a maximum, indicative of uptake saturation, already when 2.5 μM FBA-TP is added to the cells. By contrast, the increase of pATP emission between 0 and 2.5 μM is very small, only 4% of that of 2CNqATP, but when FBA-TP concentration is doubled it increases about 7 times. By adding 10 μM FBA-TP the fluorescence increases about 25 times, compared to 2.5 μM added compound.

[2] = DPBS, room temperature; cited from earlier work
Huh-7 cells [3] = test: Uptake competition with ATP or adenosine; assay type: cell-based, human; conditions: 2.5 μM compound, 4 h, increasing ATP or adenosine
Description: Uptake of 2CNqATP and pATP was compared with natural adenosine triphosphate (ATP) or adenosine (both purchased from Sigma-Aldrich). The readout is based on the fluorescence of the compounds, detected in living cells by flow cytometry or in cell lysate using a microplate reader following co-administration with increasing concentrations of natural ATP or adenosine.
Cells were seeded in a 96-well plate. Treatment solutions with ATP or adenosine were prepared by stepwise dilution in CCM to reach the concentrations shown in FIG. 7. 2CNqATP or pATP were added at a concentration of 2.5 μM. The cells were incubated for 4 h at 37° C. and 5% CO2. Cell morphology was checked under a light microscope.
For flow cytometry, the treated cells were washed three times with DPBS and detached with 0.25% trypsin-EDTA, which was then neutralized with CCM. Samples were transferred to a 96 U-well plate for high throughput readout on a BD LSRFortessa flow cytometer. Samples were excited using a 405 nm laser and emission passed through a bandpass filter centred at 450 nm (±20 nm).
For lysate readout, cells were lysed in 5x passive lysis buffer (Promega) for 1 h rocking at room temperature (ca. 22° C.). Fluorescence was recorded on an Optima Blue Fluostar plate reader (BMG Labtech). 2CNqATP was excited at 355 nm (±20 nm) and emission was detected using bandpass filter centered at 460 nm (±12 nm). […]

Huh-7 cells [4] = test: Cellular uptake and localisation by confocal fluorescence microscopy; assay type: cell-based, human; conditions: 2.5 μM
Text: Confocal Laser Scanning Fluorescence Microscopy: Images were captured using a Nikon eclipse Ti microscope with a Nikon C2plus scanner, two parallel Gallium arsenide phosphide (GaAsP) detectors, and an Apo 60x Oil μS DIC N2 objective. To excite the fluorescent nucleoside triphosphates the 405 nm laser line was used, and the emission was collected between 407-607 nm. To optimize the signal while avoiding photobleaching of the compounds a laser power of 2% and a detector gain of 4% was applied. For live cell imaging, Huh-7 cells were seeded in a four-compartment dish (CELLview Dishes, Greiner Bio-One) with glass bottom as described above. During imaging the dish was placed in a stage top incubation chamber (OKO lab) maintaining 37° C. and 5% CO2.
Time-lapse Imaging: To image the uptake of compounds 7 and 17 over time, the time-lapse setup of the NIS software was used. […]
Results: To explore the cellular uptake of compounds 7 and 17, they were added to Huh-7 cells in CCM and the uptake was monitored as function of time using a confocal fluorescence microscope (FIG. 4). Control cells, exposed to CCM alone, were imaged using the same microscopy settings and recorded as reference to probe for cellular autofluorescence levels. […]

Huh-7 cells [5] = test: Lactate dehydrogenase (LDH) leakage assay (cell membrane integrity); conditions: all exposure conditions, 24 h; in parity with untreated control cells
Description: The Huh-7 human liver cell line was used. […] For sub-cultivation the adherent cells were washed twice with DPBS, containing no calcium or magnesium, and detached with 0.25% trypsin ethylenediaminetetraacetic acid 1x (trypsin-EDTA, Gibco, with phenol red). For seeding, the cells were counted after trypsin neutralization, diluted to the desired number of cells (Table 2) and thereafter incubated at 37° C. with 5% CO2 for 24 h before experiments.
Prior to treatment, the conditioned medium was removed from the Huh-7 cells, and the compounds (stock solution in DPBS diluted in CCM) were added to the cells for different exposure times. Unexposed cells were treated the same way, with the same amount of added DPBS to CCM, instead of the compounds. Two different cytotoxicity assays (alamarBlue to measure metabolic activity and LDH leakage to measure cell membrane integrity) were performed in parallel using the cells and the culture medium from each sample, respectively. Treatments were done in triplicates and the experiment was repeated twice.
Lactate Dehydrogenase (LDH) Leakage Assay: To test for released LDH, the CyQUANT LDH Cytotoxicity Assay kit (Invitrogen) was used. […] Maximum LDH release were determined by treating cells with a 1:10 dilution of lysis buffer in serum free medium for 30 min at 37° C. and 5% CO2.

Huh-7 cells [6] = test: alamarBlue cell viability (metabolic activity) assay; assay type: cell-based; conditions: lower doses, 24 h exposure
Description: The Huh-7 human liver cell line was used.
After 24 h exposure with compounds 7 or 17, the conditioned medium was removed from the cells and used for the LDH leakage assay (see below). Freshly prepared alamarBlue cell viability reagent (Invitrogen, diluted 1:10 in CCM) was added, followed by incubation for 3 h at 37° C. and 5% CO2. The resulting resorufin fluorescence was read using an Optima Fluostar plate reader (BMG Labtech) Ex: 544 nm/Em: 590 nm. Dimethyl sulfoxide 5% and CCM alone (i.e. compounds 7 and 17 0 μM) were used as positive and negative controls for cell death, respectively.

Substance	fold increase of lysate fluorescence at 10 μM compared to 2.5 μM (Huh-7 cells [1])	fold increase of lysate fluorescence when concentration is doubled from 2.5 μM (Huh-7 cells [1])	increase of emission between 0 and 2.5 μM relative to that of 2CNqATP (Huh-7 cells [1]) [%]	ε260 [2]	uptake competition with ATP and adenosine (Huh-7 cells [3])	intracellular fluorescence following 20 h exposure (Huh-7 cells [4])	added concentration at which uptake reaches maximum (saturation) (Huh-7 cells [1]) [µM]	level of released LDH (Huh-7 cells [5])	comparison of cell viability at lower doses (Huh-7 cells [6])
((2R,3S,4R,5R)-5-(2,3,5,6-tetraazacyclopenta[de]tetracen-2(6H)-yl)-3,4-dihydroxytetrahydrofuran-2-yl)methyl hydrogen triphosphate [pATP]	about 25 times	about 7 times	4	22300^27 M^−1 cm^−1	also competes with ATP and adenosine, but the effect is considerably weaker	strong intracellular fluorescence			
((2R,3S,4R,5R)-5-(8-cyano-2,3,5,6-tetraazaaceanthrylen-2(6H)-yl)-3,4-dihydroxytetrahydrofuran-2-yl)methyl hydrogen triphosphate [2CNqATP]				14600^26 M^−1 cm^−1	competes with both ATP and adenosine with a stronger competition effect for ATP at low concentrations	strong intracellular fluorescence	2.5	about 10%	slightly more toxic than pATP
